Results taken from patent US20080299123A1, “TREATMENT OF CHEMOTHERAPY- OR RADIOTHERAPY-RESISTANT TUMORS” (Deutsches Krebsforschungszentrum Stiftung des offentlichen …, priority 2006, published 2008).

What was measured:
L1 = L1 processing in SKOV3ip cells (L1-32 in lysate, soluble L1 in supernatant), Western blot; type: cell-based, human; settings: 24 hr
Description: (§1) (A) Analysis of L1-32 cleavage by γ-secretase. Cells were treated for 48 h at 37° C. with presenilin inhibitor IX (DAPT) or for control with DMSO. Isolated membranes were incubated for 2 h at 37° C. and then separated into pellet or supernatant (SN) fractions by ultracentrifugation. Lanes 1 to 2 show cells treated with DMSO (vehicle). Lanes 3 and 4 show cells preincubated with DAPT. (B) SKOV3ip cells were treated with DAPT either in the presence or absence of the metalloprotease inhibitor TAPI-0 for 24 hr. Cells were lysed in BOG lysis buffer and analyzed by Western blot analysis. The cell supernatant was analyzed for soluble L1 using mAb L1-11A and the cell lysate was examined for L1-32 using peytL1. (C) HEK293 or HEK293-hL1wt cells were treated with DMSO, DAPT, TAPI-0 or both inhibitors for 96 h. mRNA was transcribed to cDNA and analyzed by qPCR for the genes CRABPII and cathepsin B. (D) Analysis of ERK phosphorylation in SKOV3ip cells after treatment with the indicated compounds.
(§2) (A) Effect of L1-antibodies on ERK phosphorylation in SKOV3ip cells. The cells were incubated for 24 hr at 37° C. with the indicated purified antibodies to L1 (10 μg/ml) or isotype control IgG. […] Soluble L1 in the supernant and L1-32 in the cell lysate were analyzed by Western blot. (C) mRNA was isolated from antibody treated SKOV3ip cells, transcribed to cDNA and analyzed by qPCR for the indicated genes. […]

γ-secretase = assay: In vitro γ-secretase activity on membranes of CHO-hL1wt cells; type: cell-based; settings: cells preincubated 48 h with inhibitor; membranes 2 h at 37° C.
Description: as §1
Consecutive cleavage by both enzymes is a hallmark of Notch, APP and CD44 signaling that is followed by translocation of the intracellular portion to the nucleus (22). To verify this observation for tumor cells, we analyzed the processing of L1-32 in more detail. […] Indeed, we detected L1-28 in the supernatant fraction (FIG. 11A, lane 2). […]

ERK phosphorylation = ERK phosphorylation in SKOV3ip cells; type: cell-based, human; settings: treatment with DAPT, TAPI-0
Description: as §1, §2

[1] = test system: cathepsin B and CRABPII transcription; assay: L1-dependent gene regulation by qPCR in HEK293-hL1wt cells; type: cell-based, human; settings: preincubation 96 h
Description: as §1
We next investigated whether L1-mediated gene regulation was dependent on L1-processing, by carrying out inhibition experiments. […]
mRNA was isolated using the Quiagen RNAeasy mini kit (Quiagen Hilden, Germany). […] After exposing of the hybridized membranes, the PhosphorImager screens were scanned (Fuji FLA-3000, 100 μm resolution, Fuji BAS-reader software). […]

L1CAM = L1CAM expression in PT45-P1 cells; type: cell-based, human; settings: 20 ng/mL IL1β
Description: (a) PT45-P1res cells were either left untreated (w/o) or treated with 250 ng/mL IL1-RA for 6 hours. In parallel, PT45-P1 cells were either left untreated (w/o) or treated with 20 ng/mL IL1β for 6 hours. L1CAM mRNA levels were analysed by real-time PCR and compared with β-actin used as control. Data from duplicate measurements are expressed as amount of mRNA in arbitrary units. Results from one representative out of three experiments are shown. (b) Cellular lysates from PT45-P1res and PT45-P1 cells were subjected to western blotting using an antibody for the detection of full-length L1CAM. PT45-P1res cells were either left untreated (w/o) or treated with 250 ng/mL IL1-RA for 24 hours. In parallel, PT45-P1 cells were either left untreated (w/o) or treated with 20 ng/mL IL1β for 24 hours. In all experiments, a HSP90 antibody was used as a control for equal protein load.
Cells were seeded into 6 well and 12 well plates, respectively, and transfected or treated as indicated. […] Protein concentrations were determined using the Dc Protein assay (BioRad). […]
2 μg of total RNA were reverse-transcribed into single-stranded cDNA, as described previously (Schafer et al., 1999). […] Data were collected during annealing steps and were further analysed by using the i-Cycler iQ Optical system software (BioRad). All samples were analysed in duplicates and data are expressed as amount of mRNA in arbitrary units.

| Molecule | L1-32 in cell lysate (L1) | soluble L1 in the medium (L1) | release of L1-28 from the membrane into the supernatant (γ-secretase) | ERK activation in treated cells (ERK phosphorylation) | L1-dependent regulation of transcription for cathepsin B and CRABPII [1] | L1CAM expression (L1CAM) |
| --- | --- | --- | --- | --- | --- | --- |
| C[C@H](NC(=O)Cc1cc(F)cc(F)c1)C(=O)N[C@H](C(=O)OC(C)(C)C)c1ccccc1 [DAPT] | strong increase in the metalloprotease cleavage fragment L1-32 | not increased by the treatment | could not release this fragment into the supernatant | did not interfere with ERK activation | blocked | – |
| IL1β: recombinant human Interleukin 1 beta from R&D Systems | – | – | – | – | – | enhanced L1CAM expression |
